The target in one test is T1, PKC alpha (Homo sapiens, UniProt P17252).
T1 construct: purchased Pan Vera
As to the kind of experiment: Ki Pan Vera (PV) potency for PKC alpha. It counts as biochemical. The settings on record: Ki Pan Vera (PV) of PKC alpha. How it is done: [The source words this procedure for another target and reports this target under the same test.] (§1) For Ki Pan Vera (PV) of PKCθ, entries identified with “A” had values below 100 nM; entries identified with “B” had values below 1 μM; and entries identified with “C” had values below 10 μM.

For a further test, the target named is T2, PKC delta (Homo sapiens, UniProt Q05655).
T2 construct: purchased Pan Vera
T2 sequence (Q05655 whole entry): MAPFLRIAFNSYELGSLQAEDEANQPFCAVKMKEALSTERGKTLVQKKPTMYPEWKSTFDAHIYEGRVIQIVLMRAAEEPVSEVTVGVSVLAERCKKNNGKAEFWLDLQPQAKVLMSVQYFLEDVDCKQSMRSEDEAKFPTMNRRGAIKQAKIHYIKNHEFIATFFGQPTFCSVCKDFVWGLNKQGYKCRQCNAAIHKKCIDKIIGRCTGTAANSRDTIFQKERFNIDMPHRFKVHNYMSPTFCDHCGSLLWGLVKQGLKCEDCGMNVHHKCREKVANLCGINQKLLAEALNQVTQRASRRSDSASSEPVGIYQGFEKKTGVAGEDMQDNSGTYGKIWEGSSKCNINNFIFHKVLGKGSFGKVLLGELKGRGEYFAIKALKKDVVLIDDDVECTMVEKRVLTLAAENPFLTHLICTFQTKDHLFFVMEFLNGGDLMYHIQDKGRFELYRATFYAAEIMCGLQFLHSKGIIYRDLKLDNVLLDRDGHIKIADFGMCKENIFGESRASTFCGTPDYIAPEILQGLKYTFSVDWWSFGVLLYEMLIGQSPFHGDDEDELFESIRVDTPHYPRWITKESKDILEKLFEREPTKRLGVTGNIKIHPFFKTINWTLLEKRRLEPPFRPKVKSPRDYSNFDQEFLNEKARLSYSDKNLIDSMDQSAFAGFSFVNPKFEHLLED
Briefly: Ki Pan Vera (PV) potency for PKC delta. The class given is biochemical. The settings on record: Ki Pan Vera (PV) of PKC delta. The protocol:
[The source words this procedure for another target and reports this target under the same test.] as §1

The next test concerns the target T3, SGK kinase (Homo sapiens, UniProt O00141).
T3 sequence (O00141 1-431): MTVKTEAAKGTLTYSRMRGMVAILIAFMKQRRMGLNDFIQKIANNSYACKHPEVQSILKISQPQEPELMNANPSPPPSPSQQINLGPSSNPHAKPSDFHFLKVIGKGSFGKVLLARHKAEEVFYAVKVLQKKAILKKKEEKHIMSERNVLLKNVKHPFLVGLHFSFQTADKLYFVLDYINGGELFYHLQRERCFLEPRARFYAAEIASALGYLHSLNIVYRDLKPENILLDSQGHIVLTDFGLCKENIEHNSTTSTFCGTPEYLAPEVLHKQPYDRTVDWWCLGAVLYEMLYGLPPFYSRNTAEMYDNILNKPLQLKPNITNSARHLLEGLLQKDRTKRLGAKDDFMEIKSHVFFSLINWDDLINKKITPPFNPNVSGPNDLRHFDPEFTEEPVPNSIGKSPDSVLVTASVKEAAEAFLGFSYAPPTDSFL
Briefly: IC50 for SGK kinase (selectivity). It counts as biochemical. The following applies: for IC50: read-out: IC50-SGK1. How it is done: Entries identified with “1” had values above 250 nM; entries identified with “2” had values above 1 μM; entries identified with “3” had values above 10 μM.

The target in another test is T4, PKCθ (Homo sapiens, UniProt Q04759).
T4 construct: purchased Pan Vera
T4 sequence (Q04759 whole entry): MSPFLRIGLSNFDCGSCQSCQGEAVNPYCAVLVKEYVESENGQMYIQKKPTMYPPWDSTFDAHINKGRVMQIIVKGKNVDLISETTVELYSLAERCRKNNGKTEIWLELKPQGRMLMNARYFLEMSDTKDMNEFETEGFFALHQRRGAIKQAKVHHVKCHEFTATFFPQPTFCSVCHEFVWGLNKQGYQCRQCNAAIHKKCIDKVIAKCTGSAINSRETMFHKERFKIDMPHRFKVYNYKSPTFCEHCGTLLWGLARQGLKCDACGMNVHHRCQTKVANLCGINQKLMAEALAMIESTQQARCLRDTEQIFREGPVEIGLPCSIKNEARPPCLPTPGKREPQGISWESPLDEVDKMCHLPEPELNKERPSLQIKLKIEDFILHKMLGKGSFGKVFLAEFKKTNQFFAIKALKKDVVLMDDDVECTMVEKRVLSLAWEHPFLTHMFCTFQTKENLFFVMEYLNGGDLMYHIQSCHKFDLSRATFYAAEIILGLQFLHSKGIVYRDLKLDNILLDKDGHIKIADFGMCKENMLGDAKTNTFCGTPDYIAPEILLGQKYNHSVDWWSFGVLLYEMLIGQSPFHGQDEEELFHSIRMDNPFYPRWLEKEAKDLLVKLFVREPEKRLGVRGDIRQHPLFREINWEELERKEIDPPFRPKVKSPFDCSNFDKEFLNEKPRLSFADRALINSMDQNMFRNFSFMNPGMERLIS
Briefly: Ki Pan Vera (PV) potency for PKCθ. The following applies: Ki Pan Vera (PV) of PKCθ. The class given is biochemical. How it is done: as §1

Test [1] concerns anti-CD3 induced interleukin-2 (IL-2) production. Briefly: anti-CD3 induced interleukin-2 (IL-2) production in mice. The class given is in vivo. How it is done:
The compounds of the invention were also tested in vivo.

SMILES strings stand for the structures.

We go through 25 molecules from US20110046131A1, “PURINES AS PKC-THETA INHIBITORS” (N.V. Organon and Pharmacopeia, LLC, priority 2006, published 2011).

As to `Fc1ccc(CNc2ncc3nc(-c4c(Cl)cccc4Cl)n(C[C@@H]4CCCNC4)c3n2)cc1Cl` [Compound 100], the Ki (usually the dissociation constant of the complex between target and ligand, obtained from inhibition or displacement) at PKC alpha was > 1000 nM; on PKC delta it was > 250 nM; at PKCθ it was < 100 nM. Also, at SGK kinase, the IC50-SGK1 entry was “Inactive”. In test [1] (subcutaneous dose 30 mg/kg), the “% inhibition of IL-2 production” value was 38%.

Turning to `Fc1ccc(CNc2ncc3nc(-c4c(Cl)cccc4Cl)n(C[C@@H]4CCCNC4)c3n2)cc1F` [Compound 101], the figures for the Ki on PKC alpha, on PKC delta and on PKCθ were > 1000 nM, > 250 nM and < 100 nM, respectively. For the same molecule, the IC50-SGK1 result at SGK kinase is on record as “Inactive”. The “% inhibition of IL-2 production” value in test [1] (subcutaneous dose 30 mg/kg) was determined as 58%.

With `Fc1ccc(CNc2ncc3nc(-c4c(F)cccc4Cl)n(C[C@@H]4CCCNC4)c3n2)cc1F` [Compound 113, N-(3,4-difluorobenzyl)-8-(2-chloro-6-fluorophenyl)-9-((R)-piperidin-3-ylmethyl)-9H-purin-2-amine], the results for the Ki at PKC alpha, at PKC delta and at PKCθ were > 1000 nM, > 250 nM and < 100 nM, respectively. Further, the “% inhibition of IL-2 production” value in test [1] (subcutaneous dose 30 mg/kg) is given as 38%.

Consider `Fc1ccc(CNc2ncc3nc(-c4c(Cl)cccc4Cl)n(C[C@H]4CCNC4)c3n2)cc1Cl` [Compound 120], for which the Ki on PKC alpha was > 1000 nM; on PKC delta, > 1000 nM; at PKCθ, < 1000 nM. Further, at SGK kinase, the IC50-SGK1 result is recorded as “Inactive”. In test [1] (subcutaneous dose 30 mg/kg), the “% inhibition of IL-2 production” value is 35%.

Turning to `Fc1ccc(F)c(CNc2ncc3nc(-c4ccccc4Cl)n(C[C@@H]4CCCNC4)c3n2)c1` [Compound 167], the Ki at PKC alpha is > 10000 nM; at PKC delta it was > 1000 nM; on PKCθ, < 1000 nM. The IC50-SGK1 entry on SGK kinase was “Inactive”.

Turning to `Clc1cccc(Cl)c1-c1nc2cnc(NCc3cccs3)nc2n1C[C@H]1CCNC1` [Compound 170], the Ki is > 1000 nM on PKC alpha, > 1000 nM at PKC delta and < 1000 nM at PKCθ. The IC50-SGK1 result against SGK kinase is “Inactive”.

As for `Fc1ccc(CNc2ncc3nc(-c4ccccc4Cl)n(C[C@@H]4CCCNC4)c3n2)cc1` [Compound 171], the Ki at PKC alpha is > 1000 nM; on PKC delta, > 1000 nM; at PKCθ, < 1000 nM. The IC50-SGK1 entry on SGK kinase was “Inactive”.

Regarding `Fc1ccc(CNc2ncc3nc(-c4c(Cl)cccc4Cl)n(CC4CCNC4)c3n2)c(F)c1` (stereo not shown) [Compound 172], the Ki on PKC alpha is > 1000 nM; on PKC delta, > 1000 nM; on PKCθ, < 1000 nM. Moreover, the IC50-SGK1 result against SGK kinase is on record as “Inactive”.

In the case of `Clc1ccc(CNc2ncc3nc(-c4c(Cl)cccc4Cl)n(CCC4CCNCC4)c3n2)cc1` [Compound 173], the Ki on PKC alpha is > 1000 nM; on PKC delta, > 1000 nM; on PKCθ it was < 10000 nM. For the same molecule, the IC50 (commonly the concentration needed to halve the response being measured) on SGK kinase was > 10000 nM.

Regarding `Fc1ccc(CNc2ncc3nc(-c4c(F)cccc4Cl)n(C[C@H]4CCNC4)c3n2)cc1F` [Compound 174], the Ki at PKC alpha was > 1000 nM; on PKC delta, > 1000 nM; at PKCθ, < 1000 nM. The IC50-SGK1 result against SGK kinase is “Inactive”.

Regarding `Fc1cccc(Cl)c1-c1nc2cnc(NCc3cc(Cl)cc(Cl)c3)nc2n1C[C@@H]1CCCNC1` [Compound 200], the results for the Ki at PKC alpha, on PKC delta and on PKCθ were > 10000 nM, > 1000 nM and < 10000 nM, respectively. For the same molecule, the IC50-SGK1 entry against SGK kinase was “Inactive”.

With `Fc1cccc(CNc2ncc3nc(-c4c(F)cccc4Cl)n(C[C@H]4CCNC4)c3n2)c1` [Compound 205], the Ki at PKC alpha was > 1000 nM; on PKC delta it was > 1000 nM; on PKCθ, < 1000 nM. Also, on SGK kinase, the IC50-SGK1 entry was “Inactive”.

Regarding `Clc1ccc(CNc2ncc3nc(-c4c(Cl)cccc4Cl)n(CC4CCNC4)c3n2)cc1Cl` (stereo not shown) [Compound 206], the Ki at PKC alpha is > 10000 nM; on PKC delta, > 1000 nM; on PKCθ it was < 10000 nM. Moreover, the IC50 on SGK kinase was > 10000 nM.

For the molecule `NCCCCCCn1c(-c2ccccc2Cl)nc2cnc(NCc3ccccc3F)nc21` [Compound 207], the results for the Ki on PKC alpha, at PKC delta and at PKCθ were > 10000 nM, > 1000 nM and < 10000 nM, respectively. Further, on SGK kinase, the IC50-SGK1 result is reported as “Inactive”.

With `Fc1ccc(F)c(CNc2ncc3nc(-c4c(F)cccc4Cl)n(C[C@H]4CCNC4)c3n2)c1` [Compound 209], the values for the Ki on PKC alpha, at PKC delta and at PKCθ were > 1000 nM, > 1000 nM and < 1000 nM, respectively. The IC50-SGK1 result at SGK kinase was “Inactive”.

For `Fc1ccc(CNc2ncc3nc(-c4ccccc4Cl)n(C[C@@H]4CCCNC4)c3n2)c(F)c1` [Compound 210], the Ki is > 10000 nM on PKC alpha, > 1000 nM on PKC delta and < 10000 nM on PKCθ. On SGK kinase, the IC50-SGK1 entry was “Inactive”.

For the molecule `Fc1ccccc1CNc1ncc2nc(-c3c(F)cccc3Cl)n(C[C@H]3CCNC3)c2n1` [Compound 211], the Ki at PKC alpha is > 1000 nM; on PKC delta, > 1000 nM; at PKCθ, < 1000 nM. Also, the IC50 on SGK kinase is > 1000 nM.

As for `CC(Nc1ncc2nc(-c3c(Cl)cccc3Cl)n(CCC3CCNCC3)c2n1)c1ccccc1` (stereo not shown) [Compound 212], the figures for the Ki at PKC alpha, at PKC delta and on PKCθ were > 10000 nM, > 10000 nM and < 10000 nM, respectively. Besides, at SGK kinase, the IC50-SGK1 result is listed as “Inactive”.

`Fc1cc(Cl)ccc1CNc1ncc2nc(-c3c(Cl)cccc3Cl)n(C[C@@H]3CCCNC3)c2n1` [Compound 213]: the Ki on PKC alpha is > 10000 nM; on PKC delta, > 10000 nM; at PKCθ, < 10000 nM. Also, at SGK kinase, the IC50-SGK1 entry was “Inactive”.

With `Clc1cccc(Cl)c1-c1nc2cnc(NCc3ccco3)nc2n1CCC1CCNCC1` [Compound 214], the Ki was > 1000 nM at PKC alpha, > 1000 nM at PKC delta and < 10000 nM at PKCθ. The IC50 at SGK kinase is > 10000 nM.

`Fc1cccc(Cl)c1-c1nc2cnc(NCc3cccc(Cl)c3)nc2n1C[C@H]1CCNC1` [Compound 216]: the Ki at PKC alpha is > 1000 nM; at PKC delta, > 1000 nM; at PKCθ it was < 1000 nM. Further, the IC50-SGK1 entry against SGK kinase is “Inactive”.

Consider `C[C@H](Nc1ncc2nc(-c3ccccc3Cl)n(C[C@@H]3CCCNC3)c2n1)c1ccccc1F` [Compound 217], for which the results for the inhibition constant (Ki) at PKC alpha, at PKC delta and at PKCθ were > 10000 nM, > 10000 nM and < 1000 nM, respectively. Moreover, at SGK kinase, the IC50-SGK1 result is on record as “Inactive”.

For `Fc1ccc(CNc2ncc3nc(-c4c(F)cccc4Cl)n(CC4CCNC4)c3n2)cc1F` (stereo not shown) [Compound 223], the figures for the Ki on PKC alpha, at PKC delta and at PKCθ were > 1000 nM, > 1000 nM and < 1000 nM, respectively. Also, the IC50 on SGK kinase was > 10000 nM.

On to `Fc1ccccc1CNc1ncc2nc(-c3ccccc3Cl)n(CCC3CCNCC3)c2n1` [Compound 240], for which the Ki at PKC alpha is > 10000 nM; at PKC delta, > 1000 nM; at PKCθ, < 1000 nM. In addition, on SGK kinase, the IC50-SGK1 entry was “Inactive”.

As to `C=CC[C@@H]1/C=C(\C)C[C@H](C)C[C@H](OC)[C@H]2O[C@@](O)(C(=O)C(=O)N3CCCC[C@H]3C(=O)O[C@H](/C(C)=C/[C@@H]3CC[C@@H](O)[C@H](OC)C3)[C@H](C)[C@@H](O)CC1=O)[C@H](C)C[C@@H]2OC` [FK506, reference compound], the “% inhibition of IL-2 production” value in test [1] (subcutaneous dose 1 mg/kg) was 87%.
